Experimental data: ChEMBL document CHEMBL4177661, “Improvement in aqueous solubility achieved via small molecular changes” (Bioorg Med Chem Lett, 2017)
≈ marks a conversion by molar mass, not a printed value. Each block holds one compound with its values, some of them ahead of it.

Experiments:
physchem [1] = details: water
Description: Solubility of the compound in water at 35 degC

[2] = Solubility of the compound; format: physicochemical
[3] = Solubility of the compound at pH 7.4; format: physicochemical; details: buffer
physchem [4] = details: octanol/water
Description: Lipophilicity, log P of the compound

[5] = Dissociation constant, pKa of the compound; format: physicochemical

solubility [2]: 600 µg/mL (≈ 4110 µM)
SMILES: Oc1cccc2ccnnc12

solubility [3]: 5 µg/mL (≈ 13.9 µM)
SMILES: O=C(Nc1ccc(-c2nnc(-c3ccccc3)o2)cc1)c1ccc(F)cc1

solubility [3]: 5.23 µg/mL (≈ 14.6 µM)
SMILES: O=C(Nc1ccc(-c2nc(-c3ccccc3)no2)cc1)c1ccc(F)cc1

logP (physchem [4]): 4.07
solubility [2]: 7 µg/mL (≈ 62.4 µM)
SMILES: C1CCCCCCC1 [CYCLOOCTANE]

solubility [2]: 5660 µg/mL (≈ 43800 µM)
SMILES: c1ccc2cnccc2c1 [ISOQUINOLINE]

logP (physchem [4]): 4.93
solubility [2]: 1 µg/mL (≈ 8.75 µM)
SMILES: CCCCCCCC [OCTANE]

pKa [5]: 0.7
SMILES: c1cnccn1 [PYRAZINE]

logP (physchem [4]): -0.44
SMILES: c1cncnc1 [PYRIMIDINE]

Continued, compound first:

SMILES: CC(C)CCC[C@@H](C)[C@H]1CC[C@H]2[C@@H]3CC[C@H]4C[C@@H](O)CC[C@]4(C)[C@H]3CC[C@]12C
solubility (physchem [1]): 0.009 µg/mL (≈ 0.0232 µM)

SMILES: C=CCCCCCC
solubility [2]: 3 µg/mL (≈ 26.7 µM)

SMILES: Oc1cccc2nccnc12
solubility [2]: 6600 µg/mL (≈ 45200 µM)

SMILES: Oc1cccc2cncnc12
solubility [2]: 1300 µg/mL (≈ 8900 µM)

SMILES: O=C(Nc1ccc(-c2nnc(-c3ccccc3)o2)cc1)c1ccccc1
solubility [3]: 5.89 µg/mL (≈ 17.3 µM)

SMILES: O=C(Nc1ccc(-c2nc(-c3ccccc3)no2)cc1)c1ccccc1
solubility [3]: 6.12 µg/mL (≈ 17.9 µM)

SMILES: c1ccc2c(c1)CCNC2 [1,2,3,4-TETRAHYDROISOQUINOLINE]
logP (physchem [4]): 1.71
